According to US20140213513A1 (Sanofi, priority 2012, published 2014):
*1 amine or outer side, *2 acyl side, *3 side chain or, on linkers, in order; H or OH if unused. Where a SMILES comes first, the peptide text is derived from it. Side-chain parts run from the residue outwards. [ ]: non-standard residue; d: D form. The star is where a group is joined. γGlu = O=C(O)[C@H](CCC(=O)[*:2])N[*:1]; Stearoyl = CCCCCCCCCCCCCCCCCC(=O)*; Palmitoyl = CCCCCCCCCCCCCCCC(=O)*; Aib = CC(C)(N)C(=O)O

Experiments:
Assay type in all cases: cell-based
Conditions in all cases: Table 7; cAMP formation
[1] = molecular target: T1, human glucagon receptor (hGLUC R) (Homo sapiens, UniProt P47871); test: cAMP response of HEK-293 cells stably expressing human glucagon receptor (HTRF)
T1 construct: expressed in transfected cells
Method: (§1) cAMP content of cells was determined using a kit from Cisbio Corp. (cat. no. 62AM4PEC) based on HTRF (Homogenous Time Resolved Fluorescence). For preparation, cells were split into T175 culture flasks and grown overnight to near confluency in medium (DMEM/10% FBS). Medium was then removed and cells washed with PBS lacking calcium and magnesium, followed by proteinase treatment with accutase (Sigma-Aldrich cat. no. A6964). Detached cells were washed and resuspended in assay buffer (1×HBSS; 20 mM HEPES, 0.1% BSA, 2 mM IBMX) and cellular density determined. They were then diluted to 400000 cells/ml and 25 μl-aliquots dispensed into the wells of 96-well plates. For measurement, 25 μl of test compound in assay buffer was added to the wells, followed by incubation for 30 minutes at room temperature.

[2] = molecular target: T2, human GLP-1 receptor (hGLP-1 R) (Homo sapiens, UniProt P43220); test: cAMP response of HEK-293 cells stably expressing human GLP-1 receptor (HTRF)
T2 construct: expressed in transfected cells
Method: as §1

[3] = molecular target: T3, human GIP receptor (hGIP R) (Homo sapiens, UniProt P48546); test: cAMP response of HEK-293 cells stably expressing human GIP receptor (HTRF)
T3 construct: expressed in transfected cells
T3 sequence (P48546 22-466): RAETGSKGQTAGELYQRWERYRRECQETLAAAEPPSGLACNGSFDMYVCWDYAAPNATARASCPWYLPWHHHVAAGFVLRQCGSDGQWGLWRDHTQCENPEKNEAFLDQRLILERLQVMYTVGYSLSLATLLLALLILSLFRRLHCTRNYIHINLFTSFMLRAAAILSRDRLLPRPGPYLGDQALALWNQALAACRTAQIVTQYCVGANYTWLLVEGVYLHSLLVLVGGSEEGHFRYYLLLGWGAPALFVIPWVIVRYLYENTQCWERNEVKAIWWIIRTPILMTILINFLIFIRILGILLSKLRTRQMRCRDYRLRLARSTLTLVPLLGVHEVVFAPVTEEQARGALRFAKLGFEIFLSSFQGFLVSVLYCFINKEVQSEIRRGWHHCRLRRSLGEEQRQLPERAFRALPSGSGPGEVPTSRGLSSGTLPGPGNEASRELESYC
Method: as §1

T2 sequence (P43220 24-463): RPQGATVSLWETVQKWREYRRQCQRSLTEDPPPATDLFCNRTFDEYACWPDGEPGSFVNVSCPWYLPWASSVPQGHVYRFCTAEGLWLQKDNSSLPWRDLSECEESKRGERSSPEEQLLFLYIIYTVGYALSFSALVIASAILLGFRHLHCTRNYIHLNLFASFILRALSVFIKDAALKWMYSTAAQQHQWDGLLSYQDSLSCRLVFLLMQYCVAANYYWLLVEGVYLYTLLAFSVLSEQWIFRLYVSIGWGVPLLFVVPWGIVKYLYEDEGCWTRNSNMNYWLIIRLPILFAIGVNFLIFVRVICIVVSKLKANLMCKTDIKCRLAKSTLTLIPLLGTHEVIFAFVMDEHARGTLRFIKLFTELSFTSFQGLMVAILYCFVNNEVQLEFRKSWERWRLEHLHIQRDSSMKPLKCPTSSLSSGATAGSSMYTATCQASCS
T1 sequence (P47871 26-477): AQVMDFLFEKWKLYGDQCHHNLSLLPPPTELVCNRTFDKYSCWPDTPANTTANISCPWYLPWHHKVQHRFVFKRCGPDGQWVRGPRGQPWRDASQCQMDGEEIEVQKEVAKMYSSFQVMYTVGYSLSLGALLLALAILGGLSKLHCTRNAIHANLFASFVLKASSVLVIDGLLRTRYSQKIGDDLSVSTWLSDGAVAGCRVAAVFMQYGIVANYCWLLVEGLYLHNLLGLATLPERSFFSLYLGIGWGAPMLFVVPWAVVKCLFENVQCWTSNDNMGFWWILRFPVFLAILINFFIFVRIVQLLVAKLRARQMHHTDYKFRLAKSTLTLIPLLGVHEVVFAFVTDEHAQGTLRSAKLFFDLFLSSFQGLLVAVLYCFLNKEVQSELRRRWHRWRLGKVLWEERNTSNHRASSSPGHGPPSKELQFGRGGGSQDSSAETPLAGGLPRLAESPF

CCCCCCCCCCCCCCCC(=O)N[C@@H](CCC(=O)NCCCC[C@H](NC(=O)[C@H](CCC(N)=O)NC(=O)[C@@H](NC(=O)[C@H](CO)NC(=O)[C@H](CC(C)C)NC(=O)[C@H](CC(=O)O)NC(=O)[C@H](CO)NC(=O)[C@@H](NC(=O)[C@H](Cc1ccccc1)NC(=O)[C@@H](NC(=O)CNC(=O)[C@H](CCC(N)=O)NC(=O)C(C)(C)NC(=O)[C@@H](N)Cc1ccc(O)cc1)[C@@H](C)O)[C@@H](C)O)[C@@H](C)CC)C(=O)N[C@@H](CC(=O)O)C(=O)N[C@@H](CCCCN)C(=O)N[C@@H](CCCNC(=N)N)C(=O)N[C@@H](C)C(=O)N[C@@H](C)C(=O)NC(C)(C)C(=O)N[C@@H](CC(C)C)C(=O)N[C@@H](Cc1ccccc1)C(=O)N[C@H](C(=O)N[C@@H](CCC(=O)O)C(=O)N[C@@H](Cc1c[nH]c2ccccc12)C(=O)N[C@@H](CC(C)C)C(=O)N[C@@H](CCCCN)C(=O)N[C@@H](C)C(=O)NCC(=O)NCC(=O)N1CCC[C@H]1C(=O)N[C@@H](CO)C(=O)N[C@@H](CO)C(=O)NCC(=O)N[C@@H](C)C(=O)N1CCC[C@H]1C(=O)N1CCC[C@H]1C(=O)N1CCC[C@H]1C(=O)N[C@@H](CO)C(N)=O)[C@@H](C)CC)C(=O)O [SEQ ID NO: 27, Y-Aib-Q-G-T-F-T-S-D-L-S-I-Q-K(yE-x53)-D-K-R-A-A-Aib-L-F-I-E-W-L-K-A-G-G-P-S-S-G-A-P-P-P-S-NH2] (H-Y[Aib]QGTFTSDLSIQK([γGlu-Palmitoyl])DKRAA[Aib]LFIEWLKAGGPSSGAPPPS-NH2)
EC50 [1]: 0.0389 nM
EC50 [2]: 0.0147 nM
EC50 [3]: 0.0826 nM

CCCCCCCCCCCCCCCC(=O)N[C@@H](CCC(=O)NCCCC[C@H](NC(=O)[C@H](CCC(N)=O)NC(=O)[C@@H](NC(=O)[C@H](CO)NC(=O)[C@H](CC(C)C)NC(=O)[C@H](CC(=O)O)NC(=O)[C@H](CO)NC(=O)[C@@H](NC(=O)[C@H](Cc1ccccc1)NC(=O)[C@@H](NC(=O)CNC(=O)[C@H](CCC(N)=O)NC(=O)C(C)(C)NC(=O)[C@@H](N)Cc1ccc(O)cc1)[C@@H](C)O)[C@@H](C)O)[C@@H](C)CC)C(=O)N[C@@H](CCC(=O)O)C(=O)N[C@@H](CCC(N)=O)C(=O)N[C@@H](CCCNC(=N)N)C(=O)N[C@@H](C)C(=O)N[C@@H](C)C(=O)NC(C)(C)C(=O)N[C@@H](CCC(=O)O)C(=O)N[C@@H](Cc1ccccc1)C(=O)N[C@H](C(=O)N[C@@H](CCC(=O)O)C(=O)N[C@@H](Cc1c[nH]c2ccccc12)C(=O)N[C@@H](CC(C)C)C(=O)N[C@@H](CCCCN)C(=O)N[C@@H](CC(N)=O)C(=O)N[C@H](C(=O)NCC(=O)N1CCC[C@H]1C(=O)N[C@@H](CO)C(=O)N[C@@H](CO)C(=O)NCC(=O)N[C@@H](C)C(=O)N1CCC[C@H]1C(=O)N1CCC[C@H]1C(=O)N1CCC[C@H]1C(=O)N[C@@H](CO)C(N)=O)[C@@H](C)O)[C@@H](C)CC)C(=O)O [SEQ ID NO: 15, Y-Aib-Q-G-T-F-T-S-D-L-S-I-Q-K(yE-x53)-E-Q- R-A-A-Aib-E-F-I-E-W-L-K-N-T-G-P-S-S-G-A-P-P-P-S-NH2] (H-Y[Aib]QGTFTSDLSIQK([γGlu-Palmitoyl])EQRAA[Aib]EFIEWLKNTGPSSGAPPPS-NH2)
EC50 [1]: 0.054 nM
EC50 [2]: 0.0069 nM
EC50 [3]: 0.0114 nM

CCCCCCCCCCCCCCCC(=O)N[C@@H](CCC(=O)NCCCC[C@H](NC(=O)[C@H](CCC(N)=O)NC(=O)[C@@H](NC(=O)[C@H](CO)NC(=O)[C@H](CC(C)C)NC(=O)[C@H](CC(=O)O)NC(=O)[C@H](CO)NC(=O)[C@@H](NC(=O)[C@H](Cc1ccccc1)NC(=O)[C@@H](NC(=O)CNC(=O)[C@H](CCC(N)=O)NC(=O)C(C)(C)NC(=O)[C@@H](N)Cc1ccc(O)cc1)[C@@H](C)O)[C@@H](C)O)[C@@H](C)CC)C(=O)N[C@@H](CCC(=O)O)C(=O)N[C@@H](CCCCN)C(=O)N[C@@H](CCCNC(=N)N)C(=O)N[C@@H](CC(C)C)C(=O)N[C@@H](C)C(=O)NC(C)(C)C(=O)N[C@@H](CCC(=O)O)C(=O)N[C@@H](Cc1ccccc1)C(=O)N[C@H](C(=O)N[C@@H](CCC(=O)O)C(=O)N[C@@H](Cc1c[nH]c2ccccc12)C(=O)N[C@@H](CC(C)C)C(=O)N[C@@H](CCCCN)C(=O)N[C@@H](CC(N)=O)C(=O)N[C@H](C(=O)NCC(=O)N1CCC[C@H]1C(=O)N[C@@H](CO)C(=O)N[C@@H](CO)C(=O)NCC(=O)N[C@@H](C)C(=O)N1CCC[C@H]1C(=O)N1CCC[C@H]1C(=O)N1CCC[C@H]1C(=O)N[C@@H](CO)C(N)=O)[C@@H](C)O)[C@@H](C)CC)C(=O)O [SEQ ID NO: 19, Y-Aib-Q-G-T-F-T-S-D-L-S-I-Q-K(yE-x53)-E-K-R-L-A-Aib-E-F-I-E-W-L-K-N-T-G-P-S-S-G-A-P-P-P-S-NH2] (H-Y[Aib]QGTFTSDLSIQK([γGlu-Palmitoyl])EKRLA[Aib]EFIEWLKNTGPSSGAPPPS-NH2)
EC50 [1]: 0.137 nM
EC50 [2]: 0.0085 nM
EC50 [3]: 0.0915 nM

CCCCCCCCCCCCCCCCCC(=O)N[C@@H](CCC(=O)NCCCC[C@H](NC(=O)[C@H](CCC(N)=O)NC(=O)[C@@H](NC(=O)[C@H](CO)NC(=O)[C@H](CC(C)C)NC(=O)[C@H](CC(=O)O)NC(=O)[C@H](CO)NC(=O)[C@@H](NC(=O)[C@H](Cc1ccccc1)NC(=O)[C@@H](NC(=O)CNC(=O)[C@H](CCC(=O)O)NC(=O)C(C)(C)NC(=O)[C@@H](N)Cc1ccc(O)cc1)[C@@H](C)O)[C@@H](C)O)[C@@H](C)CC)C(=O)N[C@@H](CCC(=O)O)C(=O)N[C@@H](CCC(=O)O)C(=O)N[C@@H](CCCNC(=N)N)C(=O)N[C@@H](C)C(=O)N[C@H](C(=O)N[C@@H](CCCNC(=N)N)C(=O)N[C@@H](CC(C)C)C(=O)N[C@@H](Cc1ccccc1)C(=O)N[C@H](C(=O)N[C@@H](CCC(=O)O)C(=O)N[C@@H](Cc1c[nH]c2ccccc12)C(=O)N[C@@H](CC(C)C)C(=O)N[C@@H](CCCCN)C(=O)N[C@@H](C)C(=O)NCC(=O)NCC(=O)N1CCC[C@H]1C(=O)N[C@@H](CO)C(=O)N[C@@H](CO)C(=O)NCC(=O)N[C@@H](C)C(=O)N1CCC[C@H]1C(=O)N1CCC[C@H]1C(=O)N1CCC[C@H]1C(=O)N[C@@H](CO)C(N)=O)[C@@H](C)CC)C(C)C)C(=O)O [SEQ ID NO: 64, Y-Aib-E-G-T-F-T-S-D-L-S-I-Q-K(yE-x70)-EERAVRLFIEWLKAGGPSSGAPPPS-NH2] (H-Y[Aib]EGTFTSDLSIQK([γGlu-Stearoyl])EERAVRLFIEWLKAGGPSSGAPPPS-NH2)
EC50 [1]: 75.1 nM
EC50 [3]: 0.0096 nM

CCCCCCCCCCCCCCCC(=O)N[C@@H](CCC(=O)NCCCC[C@H](NC(=O)[C@H](CCC(N)=O)NC(=O)[C@@H](NC(=O)[C@H](CO)NC(=O)[C@H](CC(C)C)NC(=O)[C@H](CC(=O)O)NC(=O)[C@H](CO)NC(=O)[C@@H](NC(=O)[C@H](Cc1ccccc1)NC(=O)[C@@H](NC(=O)CNC(=O)[C@H](CCC(N)=O)NC(=O)C(C)(C)NC(=O)[C@@H](N)Cc1ccc(O)cc1)[C@@H](C)O)[C@@H](C)O)[C@@H](C)CC)C(=O)N[C@@H](CC(=O)O)C(=O)N[C@@H](CCCCN)C(=O)N[C@@H](CCCNC(=N)N)C(=O)N[C@@H](C)C(=O)N[C@H](C(=O)N[C@@H](CCC(N)=O)C(=O)N[C@@H](CC(C)C)C(=O)N[C@@H](Cc1ccccc1)C(=O)N[C@H](C(=O)N[C@@H](CCC(=O)O)C(=O)N[C@@H](Cc1c[nH]c2ccccc12)C(=O)N[C@@H](CC(C)C)C(=O)N[C@@H](CCCCN)C(=O)N[C@@H](CC(N)=O)C(=O)NCC(=O)NCC(=O)N1CCC[C@H]1C(=O)N[C@@H](CO)C(=O)N[C@@H](CO)C(=O)NCC(=O)N[C@@H](C)C(=O)N1CCC[C@H]1C(=O)N1CCC[C@H]1C(=O)N1CCC[C@H]1C(=O)N[C@@H](CO)C(N)=O)[C@@H](C)CC)C(C)C)C(=O)O [SEQ ID NO: 47, Y-Aib-Q-G-T-F-T-S-D-L-S-I-Q-K(yE-x53)-DKRAVQLFIEWLKNGGPSSGAPPPS-NH2] (H-Y[Aib]QGTFTSDLSIQK([γGlu-Palmitoyl])DKRAVQLFIEWLKNGGPSSGAPPPS-NH2)
EC50 [1]: 2.39 nM
EC50 [2]: 0.0156 nM
